In patent US20220267380A1, “Glycopeptides Increasing Lipid Synthesis” (TFCHEM, priority 2019, published 2022):

Experiments:
[1] = tested on: normal human dermal fibroblasts (NHDF); experiment: Identification of biological processes involved (DAVID / Gene Ontology functional annotation of modulated genes); details: 10 mg/ml, p-value≤0.05
Description: Gene Ontology database has been more specifically used for the data interpretation. DAVID functional annotation part was used to cluster modulated genes into significant biological processes. […] DAVID database uses the Gene Ontology consortium (http://www.geneontology.org) vocabularies (GO terms) to describe gene products in terms of their associated biological processes. Among them, only biological processes with p-value≤0.05 were taken into account.
The gene modulations of NHDF treated with compound 1 (10 mg/ml), compound 3 (10 mg/ml) and compound 4 (10 mg/ml) vs control were analysed to cluster modulated genes into significant biological processes (p-value≤0.05).

[2] = tested on: normal human dermal fibroblasts (NHDF); experiment: Signal transduction pathway analysis (Ingenuity Pathway Analysis, activation z-score); details: 10 mg/ml
Description: Signal transduction pathway analysis: the results were then processed with IPA (Ingenuity Pathway Analysis, Qiagen®) software to identify signal transduction pathways modulated by each treatment. This software takes into account the Fold Change values of each gene and, when there is enough information, the direction of modulation of the signal transduction pathways can be identified. The relevance of the effect of each treatment on a given pathway was quantified by z-score. The z-score predicts the directional change on that effect.
A more advanced bioinformatics analysis was performed using the Ingenuity Pathway Analysis software (IPA from Qiagen®). This analysis allows the identification of the impacted signaling pathways and predicts their modulation.

[3] = tested on: normal human dermal fibroblasts (NHDF); experiment: Microscopic observations of human dermal fibroblasts in culture (formation of lipid vesicles); format: cell-based; details: 48 h, vs untreated cells
Method: Normal human dermal fibroblasts (NHDF) were grown with Dulbecco's Modified Eagle
Medium (DMEM) supplemented with Fetal Calf Serum (FCS) 10%, antibiotics (Penicillin 50 U/ml—Streptomycin 50 μg/ml) and L-Glutamine 2 mM final. Cells were grown in 37° C. and 5% CO2 incubator.
Fibroblasts were seeded in 24-well plates and cultured in culture medium for 24 hours. The medium was then replaced by assay medium and cells were incubated for further 24 hours. For the assay, the medium was replaced by assay medium containing or not (control) the test compound at different concentrations. After 48 h the morphological observations were evaluated.

| Structure (SMILES) | main biological processes involved [1] | result of the analysis of signaling pathways [2] | Activation z-score, synthesis of cholesterol ([2]; positive = stimulation) | Activation z-score, synthesis of lipid ([2]; positive = stimulation) | morphological observation of fibroblasts ([3]; 10 mg/ml) | morphological observation of fibroblasts ([3]; 20 mg/ml) | Activation z-score, Metabolism of cholesterol ([2]; positive = stimulation) | morphological observation of fibroblasts ([3]; 13 mg/ml) |
| --- | --- | --- | --- | --- | --- | --- | --- | --- |
| C[C@H](NC(=O)[C@H](C)NC(=O)[C@@H](N)CCCCNCC(F)(F)[C@]1(O)O[C@H](CO)[C@H](O)[C@H](O)[C@H]1O)C(=O)O [Compound 1] | the lipid metabolic process and the cholesterol biosynthetic process | predictive activation of the lipid synthesis and the cholesterol biosynthetic process at a transcriptional level | 2.169 | 2.668 | no effect | induced the formation of lipid vesicles in fibroblasts | – | – |
| N[C@@H](CCCCNCC(F)(F)[C@]1(O)O[C@H](CO)[C@H](O)[C@H](O)[C@H]1O)C(=O)O [Compound 3] | the lipid metabolic process and the cholesterol biosynthetic process | predictive activation of the lipid synthesis and the cholesterol biosynthetic process at a transcriptional level | 0.399 | 1.002 | – | – | 1.083 | – |
| CC(=O)N(CCCC[C@H](N)C(=O)O)CC(F)(F)[C@]1(O)O[C@H](CO)[C@H](O)[C@H](O)[C@H]1O [Compound 4] | the lipid metabolic process and the cholesterol biosynthetic process but also the ceramide metabolic process | predictive activation of the fatty acid and lipid synthesis and a stimulation of the adipocytes differentiation | – | – | – | – | – | induces the formation of lipid vesicles in fibroblasts and cell swelling |
